In brackets after ≈: the same amount, converted by molar mass.
What was measured:
Sordaria fimicola = assay: Antifungal activity against Sordaria fimicola NRRL 6460 assessed as hyphal morphological changes; assay type: functional, organism-based
Ascobolus = assay: Antifungal activity against sAscobolus furfuraceus NRRL 6459 assessed as hyphal morphological changes; assay type: functional, organism-based
[1] = Toxicity in brine shrimp; assay type: organism-based; conditions: artemia, in vivo

For `COc1cc(C)c(Oc2cc(C)cc(O)c2)c(O)c1` [CYPERIN], the IC50 (Sordaria fimicola) was 50 µg/mL (≈ 192 µM), the MIC (Sordaria fimicola) was 75 µg/mL (≈ 288 µM) and the IC50 (Ascobolus) was 100 µg/mL (≈ 384 µM). It also gave an MIC (Ascobolus) of 250 µg/mL (≈ 960 µM) and an LC50 [1] of 125 µg/mL (≈ 480 µM).

— ChEMBL document CHEMBL1151109, “Interference Competition Among Natural Fungal Competitors: an Antifungal Metabolite from the Coprophilous Fungus Preussia fleischhakii” (J Nat Prod, 1988)
